As usually defined, the melting point is the temperature of the solid-liquid transition.

This is an account of results in patent US20140228372A1 (priority 2011, published 2014).

`Cc1cc(C(F)(F)F)nn1CC(=O)N1CCC(c2csc(NC(=O)Cc3c(F)cccc3Cl)n2)CC1` [I.as.001, 2-(2-chloro-6-fluoro-phenyl)-N-(4-{1-[2-(5-methyl-3-trifluoromethyl-pyrazol-1-yl)-acetyl]-piperidin-4-yl}-thiazol-2-yl)-acetamide] returned a melting point of 249 to 251 °C.
